Reference: patent US20160008243A1, “METHOD OF TREATING HAIR” (priority 2013, published 2016)

Assay: Hair switch straightening test (switch volume after treatment, rinsing, combing and drying)
Protocol: Dark brown European wavy#6 switches of length 25 cm and weight 2 gms, were dosed with 2 ml each of different levels of trans aconitic acid solutions. They were combed straight and left to develop for at least 20 minutes. They were subsequently rinsed for 30 seconds under the tap. They were then combed straight and left to dry overnight. When dry the switches were combed straight and pictures taken. All switches looked straight without the waviness of the pre-treated switches. […] (Here volume refers to the projection of the switch image on to the screen and is given in mm^2).

[1] = 5% solution at pH 2, 2 ml per 2 g switch, at least 20 min, rinsed, dried overnight

SMILES	% benefit over water (5% solution at pH 2)	Volume in mm^2 (projection of the switch image on to the screen) [1]	% benefit over water (0.5% solution at pH 2)	Volume in mm^2 (projection of the switch image on to the screen) (0.5% solution at pH 2)	% benefit over water (1% solution at pH 2)	Volume in mm^2 (projection of the switch image on to the screen) (1% solution at pH 2)	% benefit over water (2.5% solution at pH 2)	Volume in mm^2 (projection of the switch image on to the screen) (2.5% solution at pH 2)	% benefit over water (5% solution at pH 3)	Volume in mm^2 (projection of the switch image on to the screen) (5% solution at pH 3)	Hair straightening benefit (in words) (applied to hair, conclusion from the table)
O=C(O)CC(O)(CC(=O)O)C(=O)O [Citric acid, reference compound]	33.6%	9481 mm^2									
O=C(O)/C=C(\CC(=O)O)C(=O)O [trans Aconitic acid, trans aconitic acid]	40.8%	8456 mm^2	15.4%	12073 mm^2	20.4%	11363 mm^2	24.6%	10763 mm^2	17.3%	11812 mm^2	gives hair straightening benefits
